What all share (format): cell-based
In assay [1] the test system is AKT. The experiment in a line: AKT ubiquitination assay (TUBE pulldown, western blot). The settings on record: KU-19-19 cells, 3 uM of compound, 6 hrs. The method, then: For each assay condition. 5.0×10^6 KU-19-19 cells were seeded in 10 cm dish grown in RPMI (Invitrogen. Carlsbad. CA. USA) supplemented with 10% fetal bovine serum. Cells were incubated overnight at 37° C. in a humidified atmosphere containing 5% CO2. […]. Next day, media was removed and cells were rinsed with 0.1% FBS cell culture media. Then 10 mL of 0.1% FBS+RPMI containing 3 uM of compound was added to each plate and treated with compound for 6 hrs. Cells were washed 3× with PBS and placed on ice. 900 μL of lysis buffer (50 mM Tris-HCl pH 7.4, 150 mM NaCl. 1% NP-40, 1% Sodium deoxycholate. 2 mM EDTA, 10% Glycerol, 5 mM Iodoacetamide (dissolved in ddH2O, MCE, Cat #HY-34477), 1×HALT protease\phosphatase inhibitor (Pierce. Cat #78440), 1×PMSF (Sigma. Cat #93482-50ML-F), 5 mM 1.10 Phenanthroline (in DMSO, MCE, Cat #HY—W004544), 25 uM MG-132 (in DMSO) (MCE. Cat #HY-13259), 50 μM PR-619 (make it in DMSO) (MCE. Cat #HY-13814) and 1× Benzonase (Sigma. Cat #E8263) was added and incubated on ice for 3-5 min and then scraped and collected. Lysates were incubated on ice for 1 hr and vortexed every 15 minutes before spinning down at 14 000 g for 10 minutes. Supernatants were collected and flash frozen in Liquid nitrogen for 10 minutes and stored at −80 C until further used. Adjust volume of samples with lysis buffer to obtain 1 mg in total volume of 1 mL. Perform TUBES pulldown following manufacturer's procedure using TUBE1 (high capacity magnetic beads) (Cat #UM-0501M-1000. LifeSensors). Briefly, wash 150 μl beads per sample with 12× beads volume of PBST (0.1% Tweed-20) three times. Add 1 mL of protein lysate to beads and incubate for 4 hours rotating at 4 C. Wash 4× with 10× beads volume of lysis buffer and rotate for 3 minutes, then collect beads with magnet for 3 minutes before collecting buffer. Wash 1× with 5× beads volumes of PBS-T. Wash TUBEs with 100 μl wash buffer for 5 minutes on thermomixer set at 1400 rpm and 25 C. TUBE washing buffer/TUBE Elution buffer/TUBE Neutralization buffer (Cat #UM411. LifeSensors) Elute with 18 μl of TUBE elution buffer for 15 minutes on thermomixer set at 1400 rpm at 25 C, and then collect eluate and add 2 μl of neutralization buffer. Load 18 μl of pulldown sample and 10 μg of input samples onto gel for western blot using standard methods with following antibodies: AKT (pan) (C67E7) (CST. Cat #4691S). β-Actin antibody (Cat #A1978, sigma) (Dilution. 1:2000) Anti-rabbit IgG. HRP-linked Antibody (CST. Cat #7074S) (Dilution, 1:2000)
A general note: A western blot detects proteins with antibodies after separation by electrophoresis.

For assay [2], the target named is T1, AKT1 E17 (Homo sapiens, UniProt P31749, E17K).
T1 construct: expressed in transfected cells; host or cells: KU-19-19
As to the kind of experiment: AKT plasma membrane translocation assay (AKT1 E17K-SmBiT / LCK1-LgBiT luminescence). The settings on record: KU-19-19 cells transfected with AKT1E17K-SmBIT and LCK1-LgBiT, read up to 1 hr. The method, then:
AKT plasma membrane translocation assay
Seed 1.5×10^6 KU-19-19 cells in 10 cm dish. Transfect cells at 70% cell confluency with 5 ug AKTIE17K-SmBIT and 0.5 ug LCK1-LgBiT with Jet-Optimus transfection reagent. Incubate for 4-5 hours at 37c 5% CO2 TC incubator. Split and seed 10K cells in 40 ul media per well in 384 well plate and incubate over night at 37° C. CO2 free TC incubator. Add 10 ul of 5× Vivazine substrate (prepared in CO2 independent medium) to cells and shake palte to mix for 30 seconds. Read Luminescence for 100 minutes until signal is stable (1 read per minute). Add 50 nl/well of 3 uM compound stock to cells.

Assay [3] deals with MDAMB468.1. As to the kind of experiment: Cell Titer Glo (CTG) proliferation assay, MDA-MB-468. The settings on record: Homo sapiens, MDA-MB-468; MDAMB468.1 cells, 72.0 hrs.; read-out: AVE CTG Proliferation MDAMB468.1 72.0 hrs. In short, it runs like this:
(§1)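 After overnight seeding at 37 °C, 5% CO2, cells were exposed to compound for 3 days. Viability read by CellTiter-Glo luminescence after 30 min at room temperature.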

In assay [4] the test system is KU1919.1. The experiment in a line: Cell Titer Glo (CTG) proliferation assay, KU1919. The settings on record: Homo sapiens, KU-19-19; KU1919.1 cells, 72.0 hrs.; read-out: AVE CTG Proliferation KU1919.1 72.0 hrs. A digest of the protocol: as §1
Background: ATP-based viability assays read luminescence as a measure of living cells.

For assay [5], the system named is MDAMB231.1. The experiment in a line: Cell Titer Glo (CTG) proliferation assay, MDA-MB-231. The settings on record: Homo sapiens, MDA-MB-231; MDAMB231.1 cells, 72 hrs.; read-out: AVE CTG Proliferation MDAMB231.1 72 hrs. Here is the method: Seed cells in 40 μL of cell culture media into each well of 384-well cell culture plate, spin them at room temperature at 1,000 RPM for 1 minute and then transfer the plates into 37° C. 5% CO2 incubator overnight. Next day, treat cells with 40 nL of diluted compound and return to incubator. After compound treatment for 3 days, Add 30 μL of CellTiter-Glo reagent (Promega) into each well to be detected. Then place the plates at room temperature for 30 min followed by reading on EnVision. Inhibition activity calculated as % DMSO=100×(LumSample-Lum low control)/(Lum high control-Lum low control) where high control is from cells treated with 0.1% DMSO and Low control obtained from PBS only. Use XLFit (equation 201) to calculate IC50 (A+ ((B−A)/(1[…]((x/C)^D)))) where A: Bottom, B: Top, C: IC50, D: Slope.

Where only a bound is given, the exact number is not on record here.

T1 sequence (P31749 whole entry E17K): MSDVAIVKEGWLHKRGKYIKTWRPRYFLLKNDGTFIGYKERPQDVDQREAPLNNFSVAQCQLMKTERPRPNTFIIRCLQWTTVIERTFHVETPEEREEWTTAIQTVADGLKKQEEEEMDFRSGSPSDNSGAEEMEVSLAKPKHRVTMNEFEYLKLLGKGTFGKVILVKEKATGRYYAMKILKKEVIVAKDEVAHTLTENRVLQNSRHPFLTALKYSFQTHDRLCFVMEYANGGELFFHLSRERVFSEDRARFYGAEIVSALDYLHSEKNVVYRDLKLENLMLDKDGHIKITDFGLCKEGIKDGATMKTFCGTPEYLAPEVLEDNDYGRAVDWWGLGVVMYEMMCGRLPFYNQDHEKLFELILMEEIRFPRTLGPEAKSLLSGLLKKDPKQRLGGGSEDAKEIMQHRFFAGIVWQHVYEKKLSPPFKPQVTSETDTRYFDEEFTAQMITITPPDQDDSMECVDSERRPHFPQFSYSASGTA

As for `CCOc1cc(OC)ccc1CNCC(=O)N1CCCC(c2cccc(C(=O)N[C@@H](C(=O)N3CCN(CC4CCN(CC(=O)N5CCN(CC[C@H](NC(=O)C6(N)CCN(c7ncnc8[nH]ccc78)CC6)c6ccc(Cl)cc6)CC5)CC4)CC3)C3CCCCC3)c2)C1` (some centres unmarked) [Compound I-46], in assay [1], the “Reduced AKT ubiquitination relative to PBM” value was “Yes”. Moreover, the “Reduced AKT1 E17 plasma membrane translocation relative to PBM” value in assay [2] is recorded as “Yes”.

With `NC1(C(=O)N[C@@H](CCN2CCN(C(=O)CN3CCC(OC4CCN(C(=O)[C@H](NC(=O)c5cccc(C6CN(C(=O)CNCc7ccc(F)cc7F)C6)c5)C5CCCCC5)CC4)CC3)CC2)c2ccc(Cl)cc2)CCN(c2ncnc3[nH]ccc23)CC1` [Compound I-242], the “Reduced AKT ubiquitination relative to PBM” value in assay [1] is on record as “Yes”. In assay [2], the “Reduced AKT1 E17 plasma membrane translocation relative to PBM” value is on record as “Yes”. The IC50 in assay [3] lay within 1 to 5 µM; in assay [4], 0.5 to 1 µM; in assay [5], 1 to 5 µM.

For `NC1(C(=O)N[C@@H](CCN2CCN(C(=O)CN3CCC(OC4CCN(C(=O)[C@H](NC(=O)c5cccc(C6CCCN(C(=O)C7CC7)C6)c5)C5CCCCC5)CC4)CC3)CC2)c2ccc(Cl)cc2)CCN(c2ncnc3[nH]ccc23)CC1` (some centres unmarked) [Compound I-254], the “Reduced AKT ubiquitination relative to PBM” value in assay [1] is given as “Yes”. The “Reduced AKT1 E17 plasma membrane translocation relative to PBM” value in assay [2] is “Yes”. For the same compound, the IC50 in assay [3], in assay [4] and in assay [5] was 1 to 5 µM each time.

On to `CCc1cccc(-c2cnc(C(=O)N3CCN(CC45CCC(NCC(=O)NCCNC[C@@H](C(=O)N6CCN(c7cccc8c7[C@H](C)C[C@H]8O)CC6)c6ccc(Cl)cc6)(CC4)CO5)CC3)c(NC(=O)OC(C)(C)C)c2)c1` [Compound I-305], for which the IC50 in assay [3], in assay [4] and in assay [5] was 1 to 5 µM in each case.

As for `CCc1cccc(-c2cnc(C(=O)N3CCN(CC4CCN(CC(=O)NCCNC[C@@H](C(=O)N5CCN(c6ncnc7c6[C@H](C)C[C@H]7O)CC5)c5ccc(Cl)cc5)CC4)CC3)c(NC(=O)OC(C)(C)C)c2)c1` [Compound I-306], the IC50 in assay [3], in assay [4] and in assay [5] was 1 to 5 µM in each case.

With `CC(C)(C)OC(=O)N[C@@H](C(=O)N1CCN(CC2CCN(CC(=O)N3CCN(CC[C@H](NC(=O)C4(N)CCN(c5ncnc6[nH]ccc56)CC4)c4ccc(Cl)cc4)CC3)CC2)CC1)C1CCCCC1` [Compound I-310], the results for the IC50 in assay [3], in assay [4] and in assay [5] were 1 to 5 µM, 1 to 5 µM and 5 to 10 µM, respectively.

With `CC(C)(C)OC(=O)N[C@@H](C(=O)N1CCC(OC2CCN(CC(=O)N3CCN(CC[C@H](NC(=O)C4(N)CCN(c5ncnc6[nH]ccc56)CC4)c4ccc(Cl)cc4)CC3)CC2)CC1)C1CCCCC1` [Compound I-312], the “Reduced AKT ubiquitination relative to PBM” value in assay [1] is “Yes”. The “Reduced AKT1 E17 plasma membrane translocation relative to PBM” value in assay [2] is “Yes”. Moreover, the IC50 in assay [3], in assay [4] and in assay [5] was 1 to 5 µM each time.

For the compound `CC(C)(C)OC(=O)N1CCC(OC2CCN(CC(=O)N3CCN(CC[C@H](NC(=O)C4(N)CCN(c5ncnc6[nH]ccc56)CC4)c4ccc(Cl)cc4)CC3)CC2)CC1` [Compound I-315], the values for the IC50 in assay [3], in assay [4] and in assay [5] were 1 to 5 µM, 1 to 5 µM and > 10 µM, respectively.

In the case of `CC(C)NC[C@@H](C(=O)N1CCN(c2ncnc3c2[C@H](C)C[C@H]3O)CC1)c1ccc(Cl)cc1` [GDC-0068, Ipatasertib, reference compound], the IC50 in assay [3], in assay [4] and in assay [5] was > 10 µM in each case.

The record behind these values is patent US20250171465A1, “AKT INHIBITORS” (Stablix, Inc., priority 2023, published 2025).
